The results in this text go back to paper PMC12751066, “Plastidial phosphoglucose isomerase undergoes thioredoxin-mediated redox modification without altering catalytic activity” (Biochemical Journal, 2025).

Experiment [1] deals with T1, PGI1 (Arabidopsis thaliana, UniProt Q8H103).
T1 construct: homodimer reported as functional unit
T1 sequence (Q8H103 70-613): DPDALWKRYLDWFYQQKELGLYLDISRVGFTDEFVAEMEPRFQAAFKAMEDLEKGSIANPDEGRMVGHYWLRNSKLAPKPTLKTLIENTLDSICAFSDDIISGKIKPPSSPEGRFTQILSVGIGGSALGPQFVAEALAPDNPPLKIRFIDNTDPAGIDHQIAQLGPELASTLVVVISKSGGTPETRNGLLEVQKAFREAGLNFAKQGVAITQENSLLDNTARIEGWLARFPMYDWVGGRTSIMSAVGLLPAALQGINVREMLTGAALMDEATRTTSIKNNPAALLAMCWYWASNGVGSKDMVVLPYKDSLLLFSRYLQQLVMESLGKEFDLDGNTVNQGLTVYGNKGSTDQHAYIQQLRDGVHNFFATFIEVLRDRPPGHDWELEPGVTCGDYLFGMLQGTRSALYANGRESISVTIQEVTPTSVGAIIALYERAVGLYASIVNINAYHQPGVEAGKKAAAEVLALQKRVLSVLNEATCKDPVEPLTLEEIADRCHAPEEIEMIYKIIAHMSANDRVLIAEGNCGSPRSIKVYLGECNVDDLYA
In words: inhibition at varying 6PG concentrations, coupled spectrophotometric assay. Type of experiment: biochemical. The following applies: F6P or G6P as substrate; 25 °C; reduced and oxidized PGI1.

Experiment [2] has as its target T1, PGI1. The experiment is described as follows: inhibition at varying E4P concentrations, coupled spectrophotometric assay. It counts as biochemical. The following applies: F6P or G6P as substrate; 25 °C; reduced and oxidized PGI1.

SMILES strings stand for the structures.

With `O=C(O)[C@H](O)[C@@H](O)[C@H](O)[C@H](O)COP(=O)(O)O` [6PG], the “inhibition at varying 6PG concentrations, coupled spectrophotometric assay” value in experiment [1] is “PGI1 activity decreased with increasing concentrations of E4P (Figure 9A and B) and 6PG”.

In the case of `O=C[C@H](O)[C@H](O)COP(=O)(O)O` [E4P], in experiment [2], the “inhibition at varying E4P concentrations, coupled spectrophotometric assay” value is “PGI1 activity decreased with increasing concentrations of E4P (Figure 9A and B)”.
